One assay deals with Escherichia coli. The experiment in a line: Agar disc diffusion, strain A. The assay is classed as cell-based. Set-up: (inhibition %): concentration or dose not given beside the values. To be noted: for (inhibition %): (T–C)/T×100; for diameter of the clear zone inhibition: control (DMSO) = 6 mm. How it is done: (§1) In-vitro antimicrobial properties were evaluated for all samples by the agar disc diffusion method towards different fungal and bacterial strains. Additionally, the reported inhibition zone values were comparatively analyzed with the standard antifungal drugs ketoconazole and amphotericin B as well as the standard antibiotic medications streptomycin and amikacin.
(§2) The current research has a curious focus on the in vitro antimicrobial properties of biological systems because these studies are crucial for developing effective antibacterial and antifungal medications. […] It can also be spelled out based on the chelation theory proposed by Overtone and Tweedy. Chelation theory points out that the partial exchanging of the positive charge of the metal center with donor moieties, and overlap of the ligand orbitals will reduce the greater degree of the metal ion's polarity, which ultimately rises the delocalization of π and d electrons over the full chelated ring system. By raising the size of the metal ion due to the retarding of polarization, chelation may also enhance the complexes' lipophilic characteristics, which further stimulate the lipid membrane permeability and break down the bacteria' enzymes responsible for cell wall formation, therefore slowing down the regular cell processes. By preventing the production of cell walls/proteins/DNA, including by obstructing folate metabolism and the cytoplasmic membrane, antimicrobial drugs frequently either fully eliminate microbes or only prevent their cell growth. Additionally, the samples' mode of action may be employed in disrupting the cell's respiration process by forming an H-bond during the morpholine-fused iminic group coordinated with the active metal center of its components, inhibiting proliferation of the cell. […] The difference in the antimicrobial efficacy of some of the compounds towards various microorganisms influences on the impermeability of the cells of the germs or the diversity of ribosomes of the microbes. The % of the inhibition of all substances is estimated from (45) (Table 9).
(§3) (A, B, C, D, and E are represented as gram negative bacteria species Escherichia coli, Salmonella enteric serovar typhi, Salmonella enteric serovar typhi, Pseudomonas aeruginosa, and Shigella flexneri, respectively. F & G are denoted as gram positive bacteria species Staphylococcus aureus and Bacillus cereus. H, I, and J are represented as fungal strains Aspergillus niger, Candida albicans, and Mucor indicus. Standard drugs for bacterial strains: Amikacin & Streptomycin Standard drugs for fungal strains: Ketoconazole and Amphotericin B. [Control (DMSO) = 6 mm].(44) Inhibition %=T–C/T×100, where T and C are represented as the diameter of microbial growth of the sample plates and the control plate (6 mm), respectively. Error limits ±2.5–5.0% (P ≤ 0.05).

For another assay, the system named is CT-DNA. The experiment in a line: DNA binding by cyclic voltammetry. Also on record: species or system calf thymus. To be noted: for K[red]/K[oxi], (calcd): Nernst equation; for K[red]/K[oxi], found (I): from method I; for S (bp), binding site size: method II; for Kb method I, (oxi): oxidation; for Kb method I, red: reduction; for Es° = (Eb° − Ef°): shift of formal potential on DNA binding. How it is done: The CV titration for free substances was conducted at 10 μM at 25°C in the presence of Tris-HCl buffer solution (pH: 7.4). While CT-DNA increases (0–10 μM) in each sample solution, a shift in potential, including variations in the peak currents of anodic and cathodic sides, has been monitored.
The CV technique is one of the most important tools for investigating the DNA-complex adduct's binding mechanism. The CV properties of all test samples in the presence and absence of DNA were executed at a scan rate (v) 0.1 Vs^−1 with a potential range of +2 to −2 in a Tris-HCl (5 mM)/NaCl (50 mM) (pH = 7.2) solution. The M^1+/M^2+ redox couple is caused by complexes that reveal a single anodic and cathodic peak. […] (Figure S29 and Table 6).
ΔEP is peak-to-peak separation = (EPa − EPc); E°(or) E1/2 is denoted as formal electrode potential = 1/2 (EPa + EPc); Es°=(Eb° − Ef°)Eb° and Ef° are represented as the formal electrode potential of the M^1+/M^2+ couple in the bound and free forms, respectively. Es° = +19 mV (HL), +34 mV (1a), and +31 mV (2a). Ipa is anodic peak current, Ipc is cathodic peak current. K^1+ is binding constant of reduction process, K^2+ is binding constant of oxidation process, S is represented as binding site size of base pairs (bp) with a molecule of complex, Scan rate is 100 mV·s^−1, binding constant (Kb) values observed from the linear plots of log (1/[DNA]) vs. log (I/I0 − I) for oxidation and reduction, (I0 − IDNA)/IDNA = Cp/Cf versus [DNA] and Ip ^2 versus (Ipo ^2 −Ip ^2 )/[DNA] by methods I, II, and III, respectively.(24) DiffusioncoefficientD0=7.51×10^−5 SlopelogI0 −I/I=log DNA+logKb, where I0 and I are represented as the peak currents of the compound in the absence and presence of DNA.(25) log DNA=logI0 −I/I+log1/Kb log1/DNA=logI/I0−I+logKb, (26) I0 −I/I=KbDNA, (27) I0 −I/I=Cb/Cf, where Cf and Cb are denoted as the free substance concentration and DNA-interacted compound, respectively. (29) was obtained by comparing equations (27) and (28).(28) Cb/Cf=KbDNA, (29) Cb/Cf=Kbfreebasrpairs/S , (30) Cb/Cf=KbDNA/2 S +1.
S is denoted as binding site size (bp), and Kb are estimated from (31) with the help of S = (intercept/4)^1/2 and (Kb = 2S (slope/intercept), respectively. Nernst equations are as follows:(31) Es°=Eb°−Ef°=0.0591 /n logKred/Koxi, (32) Kred/Koxi=Ant. log nEb°−Ef°/0.0591.
E 1/2 or Eb° and Ef° are the formal electrode potentials of the M^1+/M^2+ couple in their bound and free forms, respectively.(33) Ip 2 =1/KbDNAIp0 2 −Ip 2 +Ip0 2 −DNA, where Ipo and Ip are denoted as the peak currents of the complexes (1–3) in the absence and presence of DNA.(34) Ipa=2.69×10^5 n^3/2 α^1/2 AC0 ∗D0 1/2 v^1/2 , (35) Ipa=13314.7D0 1/2 v^1/2 , where Ipa is denoted as the anodic peak current in amperes, n is represented as the number of electrons participating in the redox (M^1+/M^2+) process (n = 1), charge transfer coefficient (or) activation coefficient (α)≈0.5 for quasireversible systems, which also calculated from Bard–Faulkner relation(35a) α=47.7/EPa−EP/2.
C0^∗ ⟶ Bulk concentration of the compound, A is denoted as the cross-sectional area of the working electrode (glassy carbon) in cm^2 (A∼0.07 cm^2), D0 is denoted as diffusion coefficient (cm^2 s^−1) of the M^1+/M^2+ couple in the free and bound forms, respectively, and v is denoted as the potential scan rate at 0.1 Volt·s^−1. While the substances often bind to deoxyribonucleic acid through intercalation, the peak potential shifts in a positive direction. When the compounds bind to deoxyribonucleic acid via minor or major grooves or electrostatic attractions, the peak potential shifts occur in a negative direction. […]

Assay [1] relates to Salmonella enteric serovar typhi. Nature of the assay: Agar disc diffusion, strain B. The assay is classed as cell-based. To be noted: for diameter of the clear zone inhibition: control = 6 mm. How it is done: as §1, §2, §3
(In agar diffusion tests the substance spreads into inoculated agar from a disc or well.)

For another assay, the system named is Bacillus cereus. The experiment in a line: Agar disc diffusion, strain G. To be noted: for diameter of the clear zone inhibition: control = 6 mm. Also on record: (inhibition %): concentration or dose not given beside the values. Type of assay: cell-based. How it is done: as §1, §2, §3

The text below walks through data of publication PMC9763021, “Comprehensive Assessment of Biomolecular Interactions of Morpholine-Based Mixed Ligand Cu(II) and Zn(II) Complexes of 2,2′-Bipyridine as Potential Anticancer and SARS-CoV-2 Agents: A Synergistic Experimental and Structure-Based Virtual Screening” (Bioinorganic Chemistry and Applications, 2022).

Consider `[Cu+2].[O-]c1ccccc1N=Cc1ccc(N2CCOCC2)cc1.[O-]c1ccccc1N=Cc1ccc(N2CCOCC2)cc1.c1ccc(-c2ccccn2)nc1` [(1a), [Cu(L)2(bpy)]], for which, in the assay with Escherichia coli, the “(inhibition %)” value is given as 54% and the “diameter of the clear zone inhibition” value is given as 13 mm. Further, in the assay with CT-DNA, the “Kb method II” value was 70773 M⁻¹; the “Kb method III” value was 21567 M⁻¹; the “K[red]/K[oxi], (calcd)” value is listed as 3.76; the “K[red]/K[oxi], found (I)” value worked out at 0.8628. In the assay with CT-DNA, the “S (bp), binding site size” value is 0.123 bp; the “Kb method I, (oxi)” value came out at 25330 M⁻¹; the “Kb method I, red” value is 21854 M⁻¹; the “Es° = (Eb° − Ef°)” value was “+34 mV”. Further, in assay [1], the “(inhibition %)” value is listed as 40% and the “diameter of the clear zone inhibition” value is 10 mm. In the assay with Bacillus cereus, the “(inhibition %)” value came to 54% and the “diameter of the clear zone inhibition” value was found to be 13 mm.
Consider `Oc1ccccc1N=Cc1ccc(N2CCOCC2)cc1` [(HL), 2-(4-morpholinobenzylideneamino)phenol], for which, in the assay on Escherichia coli, the “(inhibition %)” value came out at 33% and the “diameter of the clear zone inhibition” value worked out at 09 mm. Further, in the assay with CT-DNA, the “Kb method II” value was found to be 2443 M⁻¹; the “Kb method III” value is 4837 M⁻¹; the “K[red]/K[oxi], (calcd)” value is given as 2.0964; the “K[red]/K[oxi], found (I)” value amounted to 0.7214. In addition, in the assay with CT-DNA, the “S (bp), binding site size” value is given as 0.452 bp; the “Kb method I, (oxi)” value worked out at 5280 M⁻¹; the “Kb method I, red” value is 3809 M⁻¹; the “Es° = (Eb° − Ef°)” value is listed as “+19 mV”. For the same compound, in assay [1], the “(inhibition %)” value came out at 33% and the “diameter of the clear zone inhibition” value is given as 09 mm. In the assay with Bacillus cereus, the “(inhibition %)” value worked out at 33% and the “diameter of the clear zone inhibition” value is 09 mm.
For `[O-]c1ccccc1N=Cc1ccc(N2CCOCC2)cc1.[O-]c1ccccc1N=Cc1ccc(N2CCOCC2)cc1.[Zn+2].c1ccc(-c2ccccn2)nc1` [(2a), [Zn(L)2(bpy)]], in the assay with Escherichia coli, the “(inhibition %)” value is reported as 50% and the “diameter of the clear zone inhibition” value came out at 12 mm. Also, in the assay on CT-DNA, the “Kb method II” value was 27693 M⁻¹; the “Kb method III” value worked out at 18486 M⁻¹; the “K[red]/K[oxi], (calcd)” value is 3.34; the “K[red]/K[oxi], found (I)” value is listed as 0.8268. Also, in the assay with CT-DNA, the “S (bp), binding site size” value amounted to 0.270 bp; the “Kb method I, (oxi)” value was 24610 M⁻¹; the “Kb method I, red” value worked out at 20348 M⁻¹; the “Es° = (Eb° − Ef°)” value is recorded as “+31 mV”. In assay [1], the “(inhibition %)” value turned out to be 33% and the “diameter of the clear zone inhibition” value is reported as 09 mm. Moreover, in the assay on Bacillus cereus, the “(inhibition %)” value is reported as 57% and the “diameter of the clear zone inhibition” value was 14 mm.
